# Records with an inconclusive call do not appear. Active and inactive are the calls of the source. How the calls were made is not given here.
# Tested on: C. albicans CaCi-8 + fluconazole, Alamar Blue growth, 48 h
# Experiment: resistant C. albicans growth inhibition with fluconazole, dose response, CaCi-8 strain, Alamar Blue fluorescence (AID 2423)
row,Compound,EC50
1,CC(C)(C)c1ccc(SCC(N)=O)cc1,> 15 µM (inactive)
2,COc1cc2c(cc1O)CC[n+]1cc3c(OC)c(OC)ccc3cc1-2,> 16 µM (inactive)
3,O=C(NC(=S)NNC(=O)c1cnccn1)c1ccc(Cl)cc1,3.42 µM
4,CC/C(=N/NC(=O)c1ccccc1O)c1c(C)[nH]n(-c2ccccc2)c1=O,0.754 µM
5,C=CCn1c(O)c(N=NC(=S)Nc2ccccc2C)c2cc(S(=O)(=O)N3CCOCC3)ccc21,1.19 µM
6,Oc1ccc2ccccc2c1/C=N/Nc1nnc(-c2ncc[nH]2)c2ccccc12,0.382 µM
7,CCNC(=S)NNC(=O)c1cc(-c2ccc(OC)cc2)nc2ccccc12,4.38 µM
8,Cc1nn(-c2ccccc2)c(N2CCCC2)c1/C=N/NC(=O)c1ccccc1O,> 15 µM (inactive)
9,Cn1c(O)c(/C=N/NC(=O)c2cc3ccccc3cc2O)c2ccccc21,5.35 µM
10,O=C(N/N=C/c1cc([N+](=O)[O-])ccc1O)C(O)(c1ccccc1)c1ccccc1,5.79 µM
11,O=C(NNC(=S)Nc1cccc(C(F)(F)F)c1)c1ccc(Cl)cc1Cl,1.97 µM
12,O=[N+]([O-])c1ccc(C2CCCC/C2=N/OCc2ccc(F)cc2)c([N+](=O)[O-])c1 (stereo not given),> 16 µM (inactive)
13,CC(=O)c1ccc(NC(=O)Nc2cccc3ccccc23)cc1,> 15 µM (inactive)
14,c1ccc2c(c1)OCC(CNc1ncnc3sccc13)O2 (stereo not given),4.01 µM
15,O=C(NC1CCCCC1)C(c1ccc2ncccc2c1)N(Cc1ccc(F)cc1)C(=O)c1ccc2c(c1)OCCO2 (stereo not given),> 15 µM (inactive)
16,COCCNC(=O)C(c1ccc(C)o1)N(CCOC)C(=O)Cn1nnc2ccccc21 (stereo not given),> 15 µM (inactive)
17,CSc1ccc(C2c3[nH]c4ccccc4c3CCN2C(=O)c2ccnn2C)cc1 (stereo not given),2.35 µM
18,CCCOc1ccc(C(=O)NNC(=S)NC(C)=O)cc1,1.67 µM
19,C=CCN(CC=C)Cc1c(O)ccc2c(=O)c(-c3ccccc3)coc12,< 0.12 µM
20,Cc1sc(NC(=O)c2ccc(Br)s2)c(C(N)=O)c1C,0.952 µM
21,O=c1[nH]c(SCc2ccccc2F)nc2ccccc12,2.12 µM
22,O=c1cc2oc3cc(O)c(O)cc3c(-c3ccccc3[N+](=O)[O-])c-2cc1O,1.52 µM

row,Compound,EC50
1,CC1(C)COCN1S(=O)(=O)c1ccc(C(=O)Nc2nnc(-c3ccc(Cl)s3)o2)cc1,0.484 µM
2,CCCOc1cccc(-c2cc(C(=O)NNC(=S)NCC)c3ccccc3n2)c1,0.891 µM
3,COc1cnc(-c2ccccn2)nc1NC(C)C,> 15 µM (inactive)
4,O=C(Nc1ccc(NC(=O)c2cccs2)cc1)c1ccc(Br)o1,9.96 µM
5,Cc1nc(C)c(C(=O)N/N=C/c2cc(Br)ccc2O)s1,2.12 µM
6,CCOc1ccc2nc3cc(NCc4ccc(OC)cc4)ccc3c(N)c2c1,4.28 µM
7,Cc1cc(-c2cc(C(=O)O)c3ccccc3n2)c(C)s1,2.27 µM
8,CC(=O)Nc1ccc(N2CCCCC2)c(C(=O)Nc2cccc(C)c2)c1,> 16 µM (inactive)
9,Cc1nc2ccccc2cc1OCc1ccc(F)cc1,0.909 µM
10,O=C(CC1CC2CCC1C2)Nc1nc(-c2ccccn2)cs1 (stereo not given),0.641 µM
11,O=c1[nH]c(=S)[nH]nc1Cc1ccc(Cl)c(Cl)c1,1.4 µM
12,CCc1ccccc1NC(=S)NNC(=O)c1ccccc1Cl,0.823 µM
13,O=C(CNc1ccccc1F)N/N=C/C1CC=CCC1 (stereo not given),> 16 µM (inactive)
14,O=C(CCNC(=O)c1ccc(Br)cc1)Nc1nccs1,> 15 µM (inactive)
15,Cc1cc(C(=O)Nc2ccccc2C(=O)O)ccc1NC(=O)COc1cccc([N+](=O)[O-])c1,5.27 µM
16,CCCCN(C)S(=O)(=O)c1ccc(C(=O)Nc2nnc(-c3cccs3)o2)cc1,> 15 µM (inactive)
17,CC12CCC(C(=O)N(NC(=O)c3ccccc3O)C1=O)C2(C)C (stereo not given),13.9 µM
18,Cc1cc(OCC(=O)NNC(=S)NC(=O)c2cccs2)ccc1Cl,1.66 µM
19,CCCn1c(N)c(C(=O)COC(=O)c2c(C)noc2C)c(=O)n(C)c1=O,> 15 µM (inactive)
20,COc1ccc(C(=O)NNC(=S)NC(=O)c2ccccc2)cc1,2.65 µM
21,COC(=O)c1c[nH]n2c(=O)c(Cc3ccc(F)cc3Cl)c(C)nc12,0.755 µM
22,COc1cccc(-n2c(SCc3cc(=O)oc4cc(O)c(O)cc34)nc3ccccc3c2=O)c1,5.67 µM

row,Compound,EC50
1,C=CCc1c(C)c(C#N)c2nc3ccccc3n2c1NCCN(C)C,0.896 µM
2,C[C@H]1CCC/C=C/C2C[C@H](O)CC2[C@H](O)/C=C/C(=O)O1 (stereo not given in full),2.06 µM
3,Clc1ccc(OCCn2ccnc2)c2ccccc12,2.91 µM
4,CC(=S)/C=C1\Sc2ccccc2N1C,5.57 µM
5,CCOc1cc(N2CCOCC2)c(OCC)cc1NC(=O)COc1cccc2cccnc12,> 15 µM (inactive)
6,Cc1ccc2nc(Cl)c3nnnn3c2c1,0.23 µM
7,CCc1ccc(OCC(=O)NNC(=S)NC(=O)C2CCCCC2)c(Br)c1,1.79 µM
8,Cc1ccc(S(=O)(=O)CCC(=O)Nc2nc(-c3ccncc3)cs2)cc1,2.14 µM
9,CC(C)N1CCc2c(sc(NC(=O)c3nc4ccccc4s3)c2C(N)=O)C1,0.239 µM
10,N=C1/C(=C\c2ccc(SCc3ccccc3)o2)C(=O)N=C2SC=NN12,> 15 µM (inactive)
11,COc1ccc(NC(=O)NNC(=O)c2cc3ccccc3cc2O)cc1,> 16 µM (inactive)
12,Cc1ccc2nc(/C(C#N)=C\c3ccc(OC(=O)c4cccs4)cc3)[nH]c2c1,0.528 µM
13,O=C(Oc1c(CN2CCOCC2)cc(Cl)c2cccnc12)c1ccccc1Cl,2.42 µM
14,O=S(=O)(c1ccc(Cl)s1)N1CCCc2cccc(O)c21,> 15 µM (inactive)
15,C=CCn1c(O)c(N=NC(=S)Nc2ccc(OC)cc2)c2ccccc21,7.7 µM
16,C/C(=N\NC(=O)c1cc(C2CC2)nc2ccccc12)c1ccc(O)cc1O,2.12 µM
17,NNC(=S)Nc1cccc(Cl)c1,8.45 µM
18,COC(=O)/C(=N\Nc1ccc(Cl)cc1)Sc1nnc(-c2ccc(OC)cc2)n1C,> 16 µM (inactive)
19,O=[N+]([O-])c1ccc(O)c(P(=O)(c2ccccc2)c2ccccc2)c1,> 15 µM (inactive)
20,Cc1cc(C(=O)Nc2sc3c(c2C#N)CCCC3)no1,0.979 µM
21,O=c1c2ccccc2nc(/C=C/c2ccc([N+](=O)[O-])o2)n1CCCO,0.153 µM
22,COc1cccc2sc(=NC(=O)CS(=O)(=O)c3ccc(Cl)cc3)n(C)c12,6.53 µM

row,Compound,EC50
1,O=C(Nc1ccccc1N1CCOCC1)c1cc(F)cc(F)c1,2.66 µM
2,CC(=O)Nc1ccc(N2CC(C)(C)C2=O)cc1,> 15 µM (inactive)
3,O=[N+]([O-])c1cc(Br)c(O)c(/C=N/Nc2nnnn2-c2cccc3ccccc23)c1,> 15 µM (inactive)
4,O=C(Nc1nnc(-c2ccccc2)o1)c1cc(-c2cccs2)nc2ccccc12,0.901 µM
5,O=C(O)c1ccccc1-c1ccccc1C(=O)Nc1cccc(-c2nc3ccccc3o2)c1,2.24 µM
6,O=C(NNC(=O)c1ccccc1O)c1ccc(-c2ccc([N+](=O)[O-])cc2)o1,> 15 µM (inactive)
7,Cc1cccc(C2CC3(CC(C)(C)NC(=S)N3)Oc3cc(O)ccc32)c1 (stereo not given),3.97 µM
8,CCCCCCSc1nnc2[nH]c(=O)cc(N)n12,1.15 µM
9,CC(C)(C)NC(=S)N/N=C/c1cc(Br)c(O)c(Br)c1,> 15 µM (inactive)
10,COc1cc(OC)cc(N(C(=O)C2COc3ccccc3O2)C(C(=O)NC2CCCCC2)c2ccc(O)cc2)c1 (stereo not given),> 16 µM (inactive)
11,Cc1nn2c([nH]c(=O)c3ccccc32)c1C=O,0.961 µM
12,O=C(CCS(=O)(=O)Cc1ccccc1)Nc1nnc(C(F)(F)F)s1,0.746 µM
13,C=CCNC(=S)N/N=C(\C)c1ccccn1,2.3 µM
14,CC(c1ccc(Cl)cc1)n1c(-c2ccc3ccccc3n2)n[nH]c1=S (stereo not given),5.26 µM
15,N#CC1CC(c2ccccc2)=NN1c1ccccc1[N+](=O)[O-] (stereo not given),0.404 µM
16,COc1ccccc1N1CCN(Cc2cc(Br)c(O)c3ncccc23)CC1,4.49 µM
17,Cc1cccc(C)c1OCC(=O)NNC(=S)NC(=O)C1CC1,0.95 µM
18,O=C(N/N=C\c1c(O)ccc2ccccc12)c1cncc(Br)c1,0.689 µM
19,O=C(CSc1nnc(-c2ccco2)n1Cc1ccccc1)OC1CCCCC1,> 15 µM (inactive)
20,Oc1c(CN2CCc3ccccc3C2)cc(Cl)c2cccnc12,0.849 µM
21,COc1cccc(/C=N/NC(=O)c2c(C)nc3ccc(Br)cn23)c1O,0.642 µM
22,COCC(=O)Nc1nc2n(n1)C(c1ccccc1Cl)CC(c1ccc(OC)cc1)N2 (stereo not given),> 16 µM (inactive)

row,Compound,EC50
1,O=C(N/N=C\c1c(O)ccc2ccccc12)c1ccc(S(=O)(=O)N2CCCCC2)cc1,0.279 µM
2,CCOc1cc(C=O)cc(N=Nc2cccc([N+](=O)[O-])c2)c1O,0.639 µM
3,CC[n+]1c(/C=C/N(C)c2ccccc2)oc2ccccc21,7.62 µM
4,CC(C)n1cc(/C=C/c2cc[n+](C)cc2)c2ccccc21,3.09 µM
5,O=C(NNC(=O)c1cc2ccccc2cc1O)c1cccs1,> 15 µM (inactive)
6,CCCCOc1ccc(-c2cc(C(=O)NNC(=S)NCC)c3ccccc3n2)cc1,1.06 µM
7,COc1cccc(/C=N/Nc2cc(C)nc(-c3ccccc3O)n2)c1O,< 0.12 µM
8,O=C(NNC(=O)c1ccc2ccccc2c1O)c1ccccc1Cl,6.11 µM
9,Cc1cc(Nc2ccccc2)nc(NCc2ccccc2)n1,3.35 µM
10,COc1ccc(N(CC(=O)Nc2ccccc2C(N)=O)S(=O)(=O)c2ccc(C)c([N+](=O)[O-])c2)cc1,0.319 µM
11,COC1=CC(=O)C(O)=C(CCCCCCC/C=C/CCCCCCCC2=C(O)C(=O)C=C(OC)C2=O)C1=O,11.9 µM
12,COCCSc1nnc(NC(=O)C2CC(=O)N(c3ccc(C)cc3)C2)s1 (stereo not given),> 16 µM (inactive)
13,COc1ccccc1OCC(=O)N/N=C/C=C/c1ccc([N+](=O)[O-])o1,1.22 µM
14,O=C(COc1ccc2c(c1)CCC2)NCc1cccc(Cl)c1,10.9 µM
15,CCCCCc1ccc(-c2ccc(/C=C/C(=O)O)cc2)nc1,0.957 µM
16,O=C(Nc1nc(-c2ccccn2)cs1)c1ccc(Br)s1,1 µM
17,Cc1ccc(C)c(S(=O)(=O)N2CCN(Cc3ccc(O)c4ncccc34)CC2)c1,2.12 µM
18,COc1ccccc1C(=O)NNC(=S)NC(=O)c1cc(OC)c(OC)c(OC)c1,9.62 µM
19,O=C(O)c1cnc(-c2ccccc2)nc1Sc1ccccc1Cl,> 16 µM (inactive)
20,CCNc1nc(N)nc(-c2cc(Cl)ccc2O)n1,1.9 µM
21,COCc1nnc(NC(=O)c2ccc(S(=O)(=O)N3CCCCCC3)cc2)o1,12.9 µM
22,CCOc1cccc(-c2c(C(=O)N/N=C(\C)c3ccccn3)nnn2-c2nonc2N)c1,15.6 µM

# Reference: PubChem BioAssay AID2423 (Broad Institute, 2010)
